Laboratory results taken from patent US20260226041A1 (ARIGENX THERAPEUTICS CO., LTD., priority 2023, published 2026).
Where a name gives a salt, the structure may show the parent alone. Read-outs that look alike come from different tables or passages of the source.

How the values were obtained:
human AHR = biological target: T1, human AHR (Homo sapiens, UniProt P35869); assay: Human AHR agonist luciferase assay (CYP1A1 promoter Nano-luc reporter in HepG2 cells);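 further: stably transfected HepG2 clone, DRE-containing 1200 bp promoter region driving Nano-luc, treated 4 to 24 h with 11-point dilutions in tryptophan-free medium, medium-only wells as baseline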
T1 sequence (P35869 11-848): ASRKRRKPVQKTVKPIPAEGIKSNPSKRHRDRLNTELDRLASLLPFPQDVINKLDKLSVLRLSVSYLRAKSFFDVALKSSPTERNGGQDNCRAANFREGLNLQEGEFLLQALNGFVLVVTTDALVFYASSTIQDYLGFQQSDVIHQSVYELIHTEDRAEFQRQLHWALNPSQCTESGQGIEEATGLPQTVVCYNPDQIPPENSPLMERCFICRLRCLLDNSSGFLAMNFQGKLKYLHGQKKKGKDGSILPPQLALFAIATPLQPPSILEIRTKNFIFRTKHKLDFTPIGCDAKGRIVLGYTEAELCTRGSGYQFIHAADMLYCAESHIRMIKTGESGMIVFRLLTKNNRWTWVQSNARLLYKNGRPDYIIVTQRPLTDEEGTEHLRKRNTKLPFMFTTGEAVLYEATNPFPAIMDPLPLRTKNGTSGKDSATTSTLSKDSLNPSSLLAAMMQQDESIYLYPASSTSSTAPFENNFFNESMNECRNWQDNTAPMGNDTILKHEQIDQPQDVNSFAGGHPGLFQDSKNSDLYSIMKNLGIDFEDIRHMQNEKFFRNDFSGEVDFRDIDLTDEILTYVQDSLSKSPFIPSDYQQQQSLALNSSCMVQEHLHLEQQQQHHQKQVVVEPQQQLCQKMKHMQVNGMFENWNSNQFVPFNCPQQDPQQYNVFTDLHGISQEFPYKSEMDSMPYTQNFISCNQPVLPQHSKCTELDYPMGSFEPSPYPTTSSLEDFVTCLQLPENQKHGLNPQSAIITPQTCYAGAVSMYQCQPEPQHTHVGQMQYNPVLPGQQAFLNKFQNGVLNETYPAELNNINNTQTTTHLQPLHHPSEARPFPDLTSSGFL
Method: To detect AHR activation, a reporter gene plasmid was constructed by placing the gene sequence from −1200 bp to 0 bp upstream of CYP1A1 in front of a Nano-luc luciferase reporter gene according to conventional construction methods of reporter gene plasmids in the art. The reporter gene plasmid was transfected into human hepatoma HepG2 cells by a conventional liposome transfection method in the art, and stably expressing cells were selected by puromycin. The selected cells were diluted to a concentration of 5 cells/mL and seeded into a 96-well plate at 100 μL/well, and single clones were obtained after growth. A single clone with normal morphology, normal growth, and the highest induction signal was selected for the human AHR agonist luciferase assay.
On day one, the HepG2 monoclonal cell line stably expressing reporter gene was counted and seeded into a white opaque 96-well plate at a density of 1×10^4 cells per well −8×10^4 cells per well using 100 μL of complete medium without tryptophan and phenol red (minimal essential medium (MEM) without tryptophan and phenol red, 10% (v/v) fetal bovine serum, 1× non-essential amino acids, 1× sodium pyruvate, and 1× GlutaMax). The cells were cultured in an incubator maintained at 37° C. with 5% (v/v) CO2 for 24 hours.
Test compounds were prepared as 10 mmol/L stock solutions in dimethyl sulfoxide (DMSO) and stored at 4° C. protected from light. Before treatment, the compound stock solutions, positive control compounds (e.g., dioxin, 2-(1H-indole-3-carbonyl)thiazole-4-carboxylic acid methyl ester (ITE), or kynurenine), and a negative control compound (DMSO) were subjected to preliminary dilution (determined based on pre-experiments) with the complete medium without tryptophan and phenol red, followed by 3- to 20-fold serial dilutions to 11 concentration points to obtain 2× dilution solutions. When treating the cells, 50 μL of medium was first aspirated from the 96-well plate containing the seeded cells, and then 50 μL of the serially diluted 2× dilution solution was added. Each compound was tested in duplicate, and each duplicate experiment included a well with a concentration of 0 (i.e., containing only the medium) to determine the baseline. The reporter cells were returned to the incubator and incubated for 4 to 24 hours after treatment.
After treatment, 100 μL/well of Nano-Glo Luciferase Assay Reagent was added to the 96-well plate, and the relative light unit (RLU) of each well was measured. The RLU values for the wells with the concentration of 0 on the 96-well plates were averaged to calculate the baseline Ave RLU^Vehicle. The activity of AHR induced by the test compounds at different concentrations was calculated according to Formula (1) based on the ratio of RLU^Test Cmpd from the experimental groups to the baseline Ave RLU^Vehicle, to determine the activation fold.
The activation fold and the corresponding compound concentration were fitted using GraphPad Prism 9 with [Agonist] vs. response—variable slope (four parameters) to calculate the EC50 of the compound for AHR activation.

rat AHR = biological target: T2, rat AHR (Rattus norvegicus, UniProt P41738); assay: Rat AHR agonist luciferase assay (6x XRE Nano-luc reporter in H-4-II-E cells); type: cell-based; details: AHR activation, rat hepatoma H-4-II-E reporter cells, incubated 4 to 24 hours; read-out: H4IIE EC50
T2 construct: The reporter gene was introduced into a genome of rat hepatoma H-4-II-E cells via lentiviral infection; endogenous in cells; host or cells: H-4-II-E (rat hepatoma) with a lentivirally integrated 6x XRE Nano-luc reporter
T2 sequence (P41738 10-853): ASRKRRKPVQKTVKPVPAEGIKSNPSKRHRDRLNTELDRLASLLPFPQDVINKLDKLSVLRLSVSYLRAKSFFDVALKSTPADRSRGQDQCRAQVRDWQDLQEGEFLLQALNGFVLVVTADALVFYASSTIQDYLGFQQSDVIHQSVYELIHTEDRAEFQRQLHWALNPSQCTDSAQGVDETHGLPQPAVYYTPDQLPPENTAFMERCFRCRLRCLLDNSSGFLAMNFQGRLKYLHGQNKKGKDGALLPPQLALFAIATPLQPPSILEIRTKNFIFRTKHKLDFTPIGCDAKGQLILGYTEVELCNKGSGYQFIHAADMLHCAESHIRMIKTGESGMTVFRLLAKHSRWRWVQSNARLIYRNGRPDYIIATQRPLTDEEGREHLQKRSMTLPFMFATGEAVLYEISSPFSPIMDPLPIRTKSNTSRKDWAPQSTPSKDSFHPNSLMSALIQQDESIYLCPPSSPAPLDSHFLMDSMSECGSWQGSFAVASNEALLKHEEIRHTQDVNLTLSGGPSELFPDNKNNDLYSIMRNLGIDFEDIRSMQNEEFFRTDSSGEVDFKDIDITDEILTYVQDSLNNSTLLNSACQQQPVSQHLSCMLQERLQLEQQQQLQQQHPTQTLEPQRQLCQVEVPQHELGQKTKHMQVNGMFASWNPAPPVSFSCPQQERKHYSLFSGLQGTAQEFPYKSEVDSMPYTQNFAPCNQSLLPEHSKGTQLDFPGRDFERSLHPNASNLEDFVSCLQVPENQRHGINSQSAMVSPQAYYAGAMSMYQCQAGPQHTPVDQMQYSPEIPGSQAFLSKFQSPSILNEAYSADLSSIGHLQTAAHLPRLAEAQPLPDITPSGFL
Text: A lentivirus containing the reporter gene was generated by co-transfecting the transfer plasmid with packaging plasmids into 293T cells using conventional transfection methods in the art, followed by purification. The reporter gene was introduced into a genome of rat hepatoma H-4-II-E cells via lentiviral infection, and cells stably expressing the reporter gene were selected with puromycin for the rat AHR agonist luciferase assay.

mouse AHR = mouse AHR (Mus musculus, UniProt P30561); assay: Mouse AHR agonist luciferase assay (6x XRE Nano-luc reporter in Hepa1-6 cells);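 further: stable Hepa1-6 reporter line, 4–24 h exposure, 11-point serial dilution, Nano-Glo luminescence as fold over medium-only baseline, EC50 from four-parameter fit of activation fold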
Chain of mouse AHR (P30561 10-805 limits assumed): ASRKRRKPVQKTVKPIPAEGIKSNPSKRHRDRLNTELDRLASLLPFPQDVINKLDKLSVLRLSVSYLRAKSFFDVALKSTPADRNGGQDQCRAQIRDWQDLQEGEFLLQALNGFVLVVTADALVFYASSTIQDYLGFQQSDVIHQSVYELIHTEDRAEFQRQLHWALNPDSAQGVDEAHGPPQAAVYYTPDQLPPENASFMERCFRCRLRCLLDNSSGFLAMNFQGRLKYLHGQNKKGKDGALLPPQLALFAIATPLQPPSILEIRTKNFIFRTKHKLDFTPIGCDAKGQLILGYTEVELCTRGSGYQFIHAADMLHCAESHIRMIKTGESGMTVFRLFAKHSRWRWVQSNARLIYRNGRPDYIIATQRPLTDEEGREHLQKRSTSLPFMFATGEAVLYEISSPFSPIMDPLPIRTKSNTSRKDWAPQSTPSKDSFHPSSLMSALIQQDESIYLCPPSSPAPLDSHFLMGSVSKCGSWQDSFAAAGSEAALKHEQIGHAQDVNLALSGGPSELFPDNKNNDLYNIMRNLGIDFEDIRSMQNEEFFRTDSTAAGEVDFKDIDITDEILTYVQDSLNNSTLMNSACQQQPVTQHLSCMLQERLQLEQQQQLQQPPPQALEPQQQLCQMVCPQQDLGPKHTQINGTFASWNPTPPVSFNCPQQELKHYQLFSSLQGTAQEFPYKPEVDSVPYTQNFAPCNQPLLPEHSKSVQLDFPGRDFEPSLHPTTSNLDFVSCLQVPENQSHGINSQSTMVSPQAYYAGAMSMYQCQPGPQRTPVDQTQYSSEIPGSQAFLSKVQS
Chain of mouse AHR (P53762 whole entry partner): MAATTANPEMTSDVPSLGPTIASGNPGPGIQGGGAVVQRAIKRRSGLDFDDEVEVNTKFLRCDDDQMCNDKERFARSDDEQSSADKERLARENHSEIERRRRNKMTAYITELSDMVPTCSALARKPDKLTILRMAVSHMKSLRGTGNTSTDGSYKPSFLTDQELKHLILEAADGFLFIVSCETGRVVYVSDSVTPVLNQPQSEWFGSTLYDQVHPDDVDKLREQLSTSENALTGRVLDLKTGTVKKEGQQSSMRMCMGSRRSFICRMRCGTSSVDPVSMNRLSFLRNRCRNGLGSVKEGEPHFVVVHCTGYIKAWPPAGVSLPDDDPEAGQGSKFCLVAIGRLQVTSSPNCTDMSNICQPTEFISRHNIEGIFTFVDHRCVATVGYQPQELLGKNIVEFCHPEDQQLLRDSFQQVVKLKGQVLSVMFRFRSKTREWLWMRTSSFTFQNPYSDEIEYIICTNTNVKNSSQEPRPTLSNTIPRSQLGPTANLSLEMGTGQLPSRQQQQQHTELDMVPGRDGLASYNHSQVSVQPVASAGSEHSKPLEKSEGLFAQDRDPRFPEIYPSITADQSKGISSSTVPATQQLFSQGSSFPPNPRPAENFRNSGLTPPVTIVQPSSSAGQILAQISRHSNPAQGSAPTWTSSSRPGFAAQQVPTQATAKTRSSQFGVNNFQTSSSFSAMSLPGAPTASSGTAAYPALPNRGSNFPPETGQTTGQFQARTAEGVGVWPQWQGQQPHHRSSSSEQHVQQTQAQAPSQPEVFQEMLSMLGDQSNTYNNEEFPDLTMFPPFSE
Method: The reporter gene plasmid was transfected into mouse hepatoma Hepa1-6 cells by a conventional liposome transfection method in the art, and stably expressing cells were selected by puromycin for the mouse AHR agonist luciferase assay.
On day one, the stably expressing reporter gene Hepa1-6 cell line was counted and seeded into a white opaque 96-well plate at a density of 1×10^4 cells per well −8×10^4 cells per well using 100 μL of phenol red-free Dulbecco's Modified Eagle Medium (DMEM) (DMEM without phenol red, 10% fetal bovine serum). The cells were cultured in an incubator maintained at 37° C. with 5% CO2 for 24 hours.
Test compounds were prepared as 10 mM stock solutions in DMSO and stored at 4° C. protected from light. Before treatment, the compound stock solutions, positive control compounds (e.g., dioxin, ITE, or kynurenine), and a negative control compound (DMSO) were subjected to preliminary dilution (determined based on pre-experiments) with complete medium without tryptophan and phenol red, followed by 3- to 20-fold serial dilutions to 11 concentration points to obtain 10× dilution solutions. When treating the cells, 10 μL of medium was first aspirated from the 96-well plate containing the seeded cells, and then 10 μL of the serially diluted 10× dilution solution was added. Each compound was tested in duplicate, and each duplicate experiment included a well with a concentration of 0 (i.e., containing only medium) to determine the baseline. The reporter cells were returned to the incubator and incubated for 4 to 24 hours after treatment.
After treatment, 100 μL/well of Nano-Glo Luciferase Assay Reagent was added to the 96-well plate, and the RLU of each well was measured. The RLU values for the wells with the concentration of 0 on the 96-well plates were averaged to calculate the baseline Ave RLU^Vehicle The activity of AHR induced by the test compounds at different concentrations was calculated according to Formula (1) based on the ratio of RLU^Test Cmpd from the experimental groups to the baseline Ave RLU^Vehicle, to determine the activation fold.
The activation fold and the corresponding compound concentration were fitted using GraphPad Prism 9 with [Agonist] vs. response—variable slope (four parameters) to determine the EC50 of the compound for AHR activation.

[1] = read-out: HepG2 EC50, AHR activation, human hepatoma HepG2 reporter cells, incubated 4 to 24 hours

EC50 (human AHR) [nM] | EC50 (rat AHR) [nM] | EC50 (mouse AHR) [nM] | EC50 (mouse AHR; read-out: Hepa 1-6 EC50, AHR activation, mouse hepatoma Hepa1-6 reporter cells, incubated 4 to 24 hours) [nM] | Compound | EC50 (human AHR; [1]) [nM]
< 500 | ≤ 10 | < 100 | – | O=C(c1nc(C2CCOC2=O)cs1)c1c[nH]c2cc(F)ccc12 (centres unmarked) [Compound 1-2] | –
< 500 | ≤ 10 | < 100 | – | COc1ccc2c(C(=O)c3nc(C4CCOC4=O)cs3)c[nH]c2c1 (centres unmarked) [Compound 1-3] | –
< 500 | ≤ 10 | < 100 | – | O=C(c1nc(C2CCOC2=O)cs1)c1c[nH]c2ccc(F)cc12 (centres unmarked) [Compound 1-4] | –
< 500 | ≤ 10 | < 100 | – | COc1ccc2[nH]cc(C(=O)c3nc(C4CCOC4=O)cs3)c2c1 (centres unmarked) [Compound 1-5] | –
< 500 | ≤ 10 | < 100 | – | O=C(c1nc(C2CCOC2=O)cs1)c1c[nH]c2cc3c(cc12)OCO3 (centres unmarked) [Compound 1-6] | –
< 500 | – | – | – | O=C(c1nc(C2CCOC2=O)cs1)c1c[nH]c2cc(Cl)ccc12 (centres unmarked) [Compound 1-7] | –
< 500 | – | – | – | Cc1ccc2c(C(=O)c3nc(C4CCOC4=O)cs3)c[nH]c2c1 (centres unmarked) [Compound 1-8] | –
< 500 | – | – | – | N#Cc1ccc2c(C(=O)c3nc(C4CCOC4=O)cs3)c[nH]c2c1 (centres unmarked) [Compound 1-9] | –
< 500 | – | < 100 | – | O=C(c1nc(C2(F)CCOC2=O)cs1)c1c[nH]c2cc(F)ccc12 (centres unmarked) [Compound 3-2] | –
< 500 | – | < 100 | – | COc1ccc2c(C(=O)c3nc(C4(F)CCOC4=O)cs3)c[nH]c2c1 (centres unmarked) [Compound 3-3] | –
< 500 | – | 100 to 2000 | – | O=C(c1nc(C2(F)CCOC2=O)cs1)c1c[nH]c2ccc(F)cc12 (centres unmarked) [Compound 3-4] | –
500 to 2000 | – | – | – | COc1ccc2[nH]cc(C(=O)c3nc(C4(F)CCOC4=O)cs3)c2c1 (centres unmarked) [Compound 3-5] | –
< 500 | – | – | – | COc1ccc2c(C(=O)c3nc(C4(Cl)CCOC4=O)cs3)c[nH]c2c1 (centres unmarked) [Compound 4-3] | –
< 500 | – | – | – | O=C(c1nc(C2(Cl)CCOC2=O)cs1)c1c[nH]c2ccc(F)cc12 (centres unmarked) [Compound 4-4] | –
< 500 | 2000 to 100000 | – | – | CN1CCC(c2csc(C(=O)c3c[nH]c4cc(F)ccc34)n2)C1=O (centres unmarked) [Compound 7-2] | –
< 500 | 2000 to 100000 | – | – | COc1ccc2c(C(=O)c3nc(C4CCN(C)C4=O)cs3)c[nH]c2c1 (centres unmarked) [Compound 7-3] | –
< 500 | 2000 to 100000 | – | – | CN1CCC(c2csc(C(=O)c3c[nH]c4ccc(F)cc34)n2)C1=O (centres unmarked) [Compound 7-4] | –
< 500 | – | < 100 | – | CC1CC(c2csc(C(=O)c3c[nH]c4cc(F)ccc34)n2)C(=O)O1 (centres unmarked) [Compound 8-2] | –
< 500 | – | < 100 | – | COc1ccc2c(C(=O)c3nc(C4CC(C)OC4=O)cs3)c[nH]c2c1 (centres unmarked) [Compound 8-3] | –
< 500 | – | < 100 | – | CC1CC(c2csc(C(=O)c3c[nH]c4ccc(F)cc34)n2)C(=O)O1 (centres unmarked) [Compound 8-4] | –
< 500 | – | < 100 | – | COc1ccc2[nH]cc(C(=O)c3nc(C4CC(C)OC4=O)cs3)c2c1 (centres unmarked) [Compound 8-5] | –
< 500 | – | < 100 | – | CC1CC(c2csc(C(=O)c3c[nH]c4cc5c(cc34)OCO5)n2)C(=O)O1 (centres unmarked) [Compound 8-6] | –

The next lines start with the molecule.

Compound | EC50 (human AHR) [nM] | EC50 (rat AHR) [nM] | EC50 (mouse AHR) [nM] | EC50 (mouse AHR; read-out: Hepa 1-6 EC50, AHR activation, mouse hepatoma Hepa1-6 reporter cells, incubated 4 to 24 hours) [nM] | EC50 (human AHR; [1]) [nM]
O=C(c1nc(C2CCOC2=O)cs1)c1c[nH]c2ccccc12 (single isomer, unassigned) [Compound 1-isomer-A] | < 500 | ≤ 10 | < 100 | – | –
O=C(c1nc(C2CCOC2=O)cs1)c1c[nH]c2ccccc12 (single isomer, unassigned) [Compound 1-isomer-B] | – | ≤ 10 | – | < 100 | –
O=C(c1nc(C2CCOC2=O)cs1)c1c[nH]c2ccccc12 (centres unmarked) [Compound 1, 3-[2-(1H-indole-3-carbonyl)-1,3-thiazol-4-yl]tetrahydrofuran-2-one] | < 500 | ≤ 10 | < 100 | – | –
O=C(c1nc(C2(O)CCOC2=O)cs1)c1c[nH]c2ccc(F)cc12 (centres unmarked) [Compound 2-4] | < 500 | – | < 100 | – | –
COc1ccc2[nH]cc(C(=O)c3nc(C4(O)CCOC4=O)cs3)c2c1 (centres unmarked) [Compound 2-5] | < 500 | – | < 100 | – | –
O=C(c1nc(C2(F)CCOC2=O)cs1)c1c[nH]c2ccccc12 (centres unmarked) [Compound 3] | < 500 | – | < 100 | – | –
O=C1OCC=C1c1csc(C(=O)c2c[nH]c3ccccc23)n1 [Compound 5] | < 500 | – | < 100 | – | –
O=C1OCC(O)=C1c1csc(C(=O)c2c[nH]c3ccccc23)n1 [Compound 6] | 500 to 2000 | – | – | – | –
CN1CCC(c2csc(C(=O)c3c[nH]c4ccccc34)n2)C1=O (centres unmarked) [Compound 7] | < 500 | 2000 to 100000 | – | – | –
C[C@@H]1C[C@H](c2csc(C(=O)c3c[nH]c4ccccc34)n2)C(=O)O1 [Compound 8-cis-1] | – | – | – | – | < 500
C[C@H]1C[C@@H](c2csc(C(=O)c3c[nH]c4ccccc34)n2)C(=O)O1 [Compound 8-cis-2] | – | – | – | – | < 500
C[C@@H]1C[C@@H](c2csc(C(=O)c3c[nH]c4ccccc34)n2)C(=O)O1 [Compound 8-trans-1] | – | – | – | – | < 500
C[C@H]1C[C@H](c2csc(C(=O)c3c[nH]c4ccccc34)n2)C(=O)O1 [Compound 8-trans-2] | – | – | – | – | < 500
CC(C)[C@H](N)C(=O)n1cc(C(=O)c2nc(C3CCOC3=O)cs2)c2ccccc21 (stereo partly drawn) [Compound 9, 3-[2-({1-[(2S)-2-amino-3-methylbutanoyl]indol-3-yl}carbonyl)-1,3-thiazol-4-yl]tetrahydrofuran-2-one hydrochloride] | 500 to 2000 | – | 100 to 2000 | – | –
O=C(c1nc(C2CCOC2=O)cs1)c1cn(CO)c2ccccc12 (centres unmarked) [Compound 10, 3-{2-[1-(hydroxymethyl)indole-3-carbonyl]thiazol-4-yl}tetrahydrofuran-2-one] | 500 to 2000 | – | 100 to 2000 | – | –
O=C(c1nc(C2CCOC2=O)cs1)c1cn(P(=O)(O)O)c2ccccc12 (centres unmarked) [Compound 11] | 500 to 2000 | – | 100 to 2000 | – | –
O=C(c1nc(C2CCOC2=O)cs1)c1cn(COP(=O)(O)O)c2ccccc12 (centres unmarked) [Compound 12, {3-[4-(2-oxotetrahydrofuran-3-yl)thiazole-2-carbonyl]-1H-indol-1-yl}methylphosphoric acid] | 500 to 2000 | – | 100 to 2000 | – | –
CC(C)[C@H](N)C(=O)OCn1cc(C(=O)c2nc(C3CCOC3=O)cs2)c2ccccc21 (some centres unmarked) [Compound 13, hydrochloride] | 500 to 2000 | – | 100 to 2000 | – | –
COCCOCCOCCOCC(=O)OCn1cc(C(=O)c2nc(C3CCOC3=O)cs2)c2ccccc21 (centres unmarked) [Compound 14, 3,6,9,12-tetraoxatridecanoic acid {3-[4-(2-oxotetrahydrofuran-3-yl)thiazole-2-carbonyl]-1H-indol-1-yl}methyl ester] | 500 to 2000 | – | 100 to 2000 | – | –
COCCOCCOCCOCC(=O)n1cc(C(=O)c2nc(C3CCOC3=O)cs2)c2ccccc21 (centres unmarked) [Compound 15, 3-{2-[1-(3,6,9,12-tetraoxatridecanoyl)-1H-indole-3-carbonyl]thiazol-4-yl}dihydrofuran-2(3H)-one] | 500 to 2000 | – | 100 to 2000 | – | –
